# Reference: PMC7031696 (Cell chemical biology, 2019)
# Read-outs that look alike come from different tables or passages of the source.
# Key:
# [1] = tested on: Plasmodium falciparum 3D7-A10 parasites; assay: Stage specificity assay (8-h exposure of synchronized stages, IC50^8h); type: cell-based; conditions: for IC50: Plasmodium falciparum
# [2] = tested on: 3D7-MR4 trophozoite parasite-infected RBCs; assay: Metabolomic profiling (hydrophilic metabolite changes, UHPLC-MS); type: cell-based, Plasmodium falciparum
# [3] = tested on: asynchronous 3D7-A10 parasite cultures; assay: Standard 72-h exposure asexual blood stage susceptibility assay (IC50^72h); type: cell-based, Plasmodium falciparum; conditions: Plasmodium falciparum, 3D7, 72 h, read-out: Overall (72hr assay) Mean IC50 (IC50^72h)
compound,measurement,setting,value
COc1cncc(-c2cncc(N3CCN(c4ccncc4)CC3)n2)c1 [MMV085071],Ratio lowest IC50 8hr/IC50 72hr,[1]; 3D7-A10,0.6
same,IC50,"[1]; 3D7, read-out: Early rings Mean IC50 (IC50^8h), 8-h exposure 0–8 hr, 3D7-A10, survival at 60 h",893 nM
same,IC50,"[1]; 3D7, read-out: Early trophozoites Mean IC50 (IC50^8h), 8-h exposure 16–24 hr, 3D7-A10, survival at 60 h",61.1 nM
same,IC50,"[1]; 3D7, read-out: Late rings Mean IC50 (IC50^8h), 8-h exposure 8–16 hr, 3D7-A10, survival at 60 h",492 nM
same,IC50,"[1]; 3D7, read-out: Late trophozoites Mean IC50 (IC50^8h), 8-h exposure 24–32 hr, 3D7-A10, survival at 60 h",81.4 nM
same,IC50,"[1]; 3D7, read-out: Schizonts Mean IC50 (IC50^8h), 8-h exposure 32–40 hr, 3D7-A10, survival at 60 h",254 nM
same,Peak Activity (Table S1),[1]; stage(s) with the lowest IC50^8h,Trophs
same,changes within the set of metabolites detected (low fold change group),"[2]; 10 × IC50^72h, 2.5 hr, trophozoites",did not induce major changes
same,Log2(fold changes) 3-phosphoglycerate,"[2]; metabolite 3-phosphoglycerate, log2 fold change",-0.3571
same,Log2(fold changes) 4-Pyridoxic acid,"[2]; metabolite 4-Pyridoxic acid, log2 fold change",0.1725
same,Log2(fold changes) 4-aminobutyrate,"[2]; metabolite 4-aminobutyrate, log2 fold change",-0.2370
same,Log2(fold changes) 4-phosphopantetheine,"[2]; metabolite 4-phosphopantetheine, log2 fold change",0.0000
same,Log2(fold changes) 4-phosphopantothenate,"[2]; metabolite 4-phosphopantothenate, log2 fold change",-0.0279
same,Log2(fold changes) 5-aminopentanoic acid,"[2]; metabolite 5-aminopentanoic acid, log2 fold change",0.0000
same,Log2(fold changes) 5-methyl-THF,"[2]; metabolite 5-methyl-THF, log2 fold change",0.0000
same,Log2(fold changes) 5-phosphoribosyl-1-pyrophosphate,"[2]; metabolite 5-phosphoribosyl-1-pyrophosphate, log2 fold change",0.0000
same,Log2(fold changes) 6-phospho-D-gluconate,"[2]; metabolite 6-phospho-D-gluconate, log2 fold change",-0.0766
same,Log2(fold change) HVDD,[2]; metabolite HVDD,1.5471
same,Log2(fold change) Hydroxyisocaproic acid,[2]; metabolite Hydroxyisocaproic acid,0.0000
same,Log2(fold change) IDP,[2]; metabolite IDP,0.0000
same,Log2(fold change) IMP,[2]; metabolite IMP,-0.0355
same,Log2(fold change) Inositol,[2]; metabolite Inositol,0.0000
same,Log2(fold change) Isopentyl-PP,[2]; metabolite Isopentyl-PP,0.0000
same,Log2(fold change) L-arginino-succinate,[2]; metabolite L-arginino-succinate,0.7586
same,Log2(fold change) LD,[2]; metabolite LD,1.2308
same,Log2(fold change) Myristoyl/tetradecanoyl-CoA,[2]; metabolite Myristoyl/tetradecanoyl-CoA,0.0000
same,Log2(fold change) N-Acetyl-L-alanine,[2]; metabolite N-Acetyl-L-alanine,0.1191
same,Log2(fold change) N-acetyl-L-ornithine,[2]; metabolite N-acetyl-L-ornithine,1.0380
same,Log2(fold change) N-acetyl-glucosamine-1/6-phosphate,[2]; metabolite N-acetyl-glucosamine-1/6-phosphate,0.0154
same,Log2(fold change) N-acetyl-glutamate,[2]; metabolite N-acetyl-glutamate,0.1593
same,Log2(fold change) N-acetyl-glutamine,[2]; metabolite N-acetyl-glutamine,-0.2990
same,Log2(fold change) N-carbamoyl-L-aspartate,[2]; metabolite N-carbamoyl-L-aspartate,0.1424
same,Log2(fold change) NAD+,[2]; metabolite NAD+,0.0189
same,Log2(fold change) NADH,[2]; metabolite NADH,0.0000
same,Log2(fold change) NADP+,[2]; metabolite NADP+,0.1777
same,Log2(fold change) NADPH,[2]; metabolite NADPH,0.0000
same,Log2(fold change) O-acetyl-L-serine,[2]; metabolite O-acetyl-L-serine,0.0000
same,Log2(fold change) Octoluse 8/1P,[2]; metabolite Octoluse 8/1P,0.0000
same,Log2(fold change) Octoluse Bisphosphate,[2]; metabolite Octoluse Bisphosphate,0.0955
same,Log2(fold change) PD,[2]; metabolite PD,0.1245
same,Log2(fold change) PE,[2]; metabolite PE,0.4481
same,Log2(fold change) PEE,[2]; metabolite PEE,1.1300
same,Log2(fold change) PEEK,[2]; metabolite PEEK,1.3266
same,Log2(fold change) PVNF,[2]; metabolite PVNF,0.3702
same,Log2(fold change) Pyroglutamic acid,[2]; metabolite Pyroglutamic acid,0.0000
same,Log2(fold change) Pyrophosphate,[2]; metabolite Pyrophosphate,0.0000
same,Log2(fold change) Ribose-5-phosphate,[2]; metabolite Ribose-5-phosphate,0.0000
same,Log2(fold change) S-adenosyl-L-homocysteine,[2]; metabolite S-adenosyl-L-homocysteine,-0.0131
same,Log2(fold change) S-adenosyl-L-methioninamine,[2]; metabolite S-adenosyl-L-methioninamine,0.0000
same,Log2(fold change) S-adenosyl-L-methionine,[2]; metabolite S-adenosyl-L-methionine,0.0000
same,Log2(fold change) S-methyl-5'-thioadenosine,[2]; metabolite S-methyl-5'-thioadenosine,0.0000
same,Log2(fold change) SD,[2]; metabolite SD,0.5330
same,Log2(fold change) SDL,[2]; metabolite SDL,0.1100
same,Log2(fold change) SID,[2]; metabolite SID,-0.3348
same,Log2(fold change) Sedoheptulose bisphosphate,[2]; metabolite Sedoheptulose bisphosphate,0.0203
same,Log2(fold change) Thiamine pyrophosphate,[2]; metabolite Thiamine pyrophosphate,0.0000
same,Log2(fold changes) UDP-D-glucose,"[2]; metabolite UDP-D-glucose, log2 fold change",0.0450
same,Log2(fold changes) UDP-D-glucuronate,"[2]; metabolite UDP-D-glucuronate, log2 fold change",0.0222
same,Log2(fold changes) UDP-N-acetyl-glucosamine,"[2]; metabolite UDP-N-acetyl-glucosamine, log2 fold change",-0.1104
same,Log2(fold changes) UDP,"[2]; metabolite UDP, log2 fold change",0.8151
same,Log2(fold changes) UMP,"[2]; metabolite UMP, log2 fold change",-0.2015
same,Log2(fold changes) UTP,"[2]; metabolite UTP, log2 fold change",-0.1278
same,Log2(fold change) hydroxyphenylpyruvate,[2]; metabolite hydroxyphenylpyruvate,0.0000
same,Log2(fold change) hydroxyproline/Aminolevulinate,[2]; metabolite hydroxyproline/Aminolevulinate,-0.0385
same,Log2(fold change) hypoxanthine,[2]; metabolite hypoxanthine,0.0000
same,Log2(fold change) indole,[2]; metabolite indole,0.0000
same,Log2(fold change) inosine,[2]; metabolite inosine,-0.0754
same,Log2(fold change) isoleucine,[2]; metabolite isoleucine,-0.1140
same,Log2(fold change) lactate,[2]; metabolite lactate,0.0000
same,Log2(fold change) leucine,[2]; metabolite leucine,-0.0775
same,Log2(fold change) lysine,[2]; metabolite lysine,0.0000
same,Log2(fold change) malate,[2]; metabolite malate,-0.0512
same,Log2(fold change) maleic acid,[2]; metabolite maleic acid,-0.0636
same,Log2(fold change) methionine,[2]; metabolite methionine,0.2308
same,Log2(fold change) myo-inositol,[2]; metabolite myo-inositol,0.0000
same,Log2(fold change) nicotinamide mononucleotide,[2]; metabolite nicotinamide mononucleotide,0.0000
same,Log2(fold change) nicotinate,[2]; metabolite nicotinate,0.2062
same,Log2(fold change) ornithine,[2]; metabolite ornithine,0.0000
same,Log2(fold change) orotate,[2]; metabolite orotate,0.3476
same,Log2(fold change) orotidine-5'-phosphate,[2]; metabolite orotidine-5'-phosphate,0.4326
same,Log2(fold change) oxaloacetate,[2]; metabolite oxaloacetate,0.0000
same,Log2(fold change) p-aminobenzoate,[2]; metabolite p-aminobenzoate,0.0000
same,Log2(fold change) p-hydroxybenzoate,[2]; metabolite p-hydroxybenzoate,0.0000
same,Log2(fold change) pantothenate,[2]; metabolite pantothenate,-0.2410
same,Log2(fold change) phenylalanine,[2]; metabolite phenylalanine,-0.1015
same,Log2(fold change) phenylpyruvate,[2]; metabolite phenylpyruvate,0.0000
same,Log2(fold change) phosphoenolpyruvate,[2]; metabolite phosphoenolpyruvate,-0.3652
same,Log2(fold change) prephenate,[2]; metabolite prephenate,0.0000
same,Log2(fold change) proline,[2]; metabolite proline,0.0444
same,Log2(fold change) pyridoxine,[2]; metabolite pyridoxine,0.0000
same,Log2(fold change) pyruvate,[2]; metabolite pyruvate,-0.4378
same,Log2(fold change) riboflavin,[2]; metabolite riboflavin,-0.6618
same,Log2(fold change) ribose,[2]; metabolite ribose,0.0000
same,Log2(fold change) ribose-phosphate,[2]; metabolite ribose-phosphate,-0.0725
same,Log2(fold change) ribulose-5-phosphate,[2]; metabolite ribulose-5-phosphate,-0.2555
same,Log2(fold change) serine,[2]; metabolite serine,0.5038
same,Log2(fold change) sn-glycerol-3-phosphate,[2]; metabolite sn-glycerol-3-phosphate,-0.1967
same,Log2(fold change) succinate/Methylmalonic acid,[2]; metabolite succinate/Methylmalonic acid,-0.0635
same,Log2(fold change) succinyl-CoA/methylmalonyl-CoA,[2]; metabolite succinyl-CoA/methylmalonyl-CoA,0.0000
same,Log2(fold change) taurine,[2]; metabolite taurine,0.0000
same,Log2(fold change) thiamine,[2]; metabolite thiamine,0.0498
same,Log2(fold change) threonine/homoserine,[2]; metabolite threonine/homoserine,0.1750
same,Log2(fold change) thymidine,[2]; metabolite thymidine,0.0000
same,Log2(fold changes) thymine,"[2]; metabolite thymine, log2 fold change",0.0000
same,Log2(fold changes) trehalose-6-Phosphate,"[2]; metabolite trehalose-6-Phosphate, log2 fold change",0.0000
same,Log2(fold changes) tryptophan,"[2]; metabolite tryptophan, log2 fold change",-0.0120
same,Log2(fold changes) tyrosine,"[2]; metabolite tyrosine, log2 fold change",0.0532
same,Log2(fold changes) uridine,"[2]; metabolite uridine, log2 fold change",0.0000
same,IC50,[3],105 nM
